Data reported in ChEMBL document CHEMBL1121510, “Resolution, absolute configuration, and antiarrhythmic properties of the enantiomers of disopyramide, 4-(diisopropylamino)-2-(2-pyridyl)-2-phenylbutyramide” (1980).

What was measured:
[1] = species on record: Oryctolagus cuniculus; experiment: Antiarrhythmic activity expressed as change in effective refractory period (DeltaERP) induced in rabbit ventricle by the Enantiomeric Disopyramide Bitartrates at a concentration of 3.0x10E-6M; format: functional, Heart
[2] = species on record: Oryctolagus cuniculus; experiment: Antiarrhythmic activity expressed as change in effective refractory period (DeltaERP) induced in rabbit ventricle by the Enantiomeric Disopyramide Bitartrates at a concentration of 1.5x10E-5M.; format: functional, Heart

Compound	Delta ERP [1] [ms]	Delta ERP [2] [ms]
CC(C)N(CC[C@](C(N)=O)(c1ccccc1)c1ccccn1)C(C)C [(S)-DISOPYRAMIDE]	21.8	41.2
CC(C)N(CC[C@@](C(N)=O)(c1ccccc1)c1ccccn1)C(C)C [DISOPIRAMIDE]	25.8	50.5
